Test results from the Kinase Knowledgebase extract (Sharma et al. 2016).
pIC50: −log10 of the molar value.

Target: EGFR (human) (UniProt P00533)
Sequence (P00533 whole entry, looked up): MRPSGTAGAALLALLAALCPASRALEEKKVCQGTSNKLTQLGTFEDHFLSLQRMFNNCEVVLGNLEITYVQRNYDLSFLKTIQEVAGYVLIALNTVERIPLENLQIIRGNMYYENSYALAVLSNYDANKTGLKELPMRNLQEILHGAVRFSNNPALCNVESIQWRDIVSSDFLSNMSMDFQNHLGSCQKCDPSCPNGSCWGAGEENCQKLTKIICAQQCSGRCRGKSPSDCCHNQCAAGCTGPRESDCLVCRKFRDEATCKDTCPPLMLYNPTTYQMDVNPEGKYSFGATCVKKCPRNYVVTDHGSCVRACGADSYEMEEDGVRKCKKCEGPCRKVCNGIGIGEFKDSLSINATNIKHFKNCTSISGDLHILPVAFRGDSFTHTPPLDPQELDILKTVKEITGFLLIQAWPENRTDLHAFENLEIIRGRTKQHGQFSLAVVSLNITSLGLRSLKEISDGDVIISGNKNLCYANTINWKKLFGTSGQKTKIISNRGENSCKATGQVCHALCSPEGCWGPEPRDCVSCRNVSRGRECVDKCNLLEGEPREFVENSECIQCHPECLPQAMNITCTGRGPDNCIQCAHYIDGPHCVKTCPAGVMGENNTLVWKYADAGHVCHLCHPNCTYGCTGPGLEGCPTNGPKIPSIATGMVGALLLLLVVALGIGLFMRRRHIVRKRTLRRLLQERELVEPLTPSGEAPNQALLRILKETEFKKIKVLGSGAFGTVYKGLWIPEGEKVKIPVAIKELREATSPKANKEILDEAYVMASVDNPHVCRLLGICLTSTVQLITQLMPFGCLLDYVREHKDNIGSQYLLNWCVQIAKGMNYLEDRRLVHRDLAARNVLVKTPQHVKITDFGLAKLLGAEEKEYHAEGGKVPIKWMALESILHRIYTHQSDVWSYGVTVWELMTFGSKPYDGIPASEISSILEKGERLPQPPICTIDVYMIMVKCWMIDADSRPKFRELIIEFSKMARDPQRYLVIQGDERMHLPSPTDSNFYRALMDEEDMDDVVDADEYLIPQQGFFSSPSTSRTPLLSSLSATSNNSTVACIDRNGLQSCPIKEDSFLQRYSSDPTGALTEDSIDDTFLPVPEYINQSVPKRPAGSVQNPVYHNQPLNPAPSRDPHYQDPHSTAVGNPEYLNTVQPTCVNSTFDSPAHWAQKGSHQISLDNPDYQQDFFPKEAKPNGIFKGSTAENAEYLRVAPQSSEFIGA

Row | Compound | pIC50
1 | COc1ccc(NC(=O)Nc2ccc(Oc3ncnc4cc(OC)c(OC)cc34)cc2)cc1 | < 5.00
2 | COC(=O)Nc1ccc(Oc2ncnc3cc(OC)c(OC)cc23)cc1 | < 5.00
3 | CCCC(=O)Nc1ccc(Nc2ncnc3cc(OC)c(OC)cc23)cc1C | < 5.00
4 | CCCCNC(=O)Nc1ccc(Oc2ncnc3cc(OC)c(OC)cc23)cc1 | < 5.00
5 | COc1cc2ncnc(Oc3ccc(NC(=O)Nc4ccc(F)cc4F)cc3)c2cc1OC | < 5.00
6 | COc1ccc(NC(=O)Nc2cccc(Oc3ncnc4cc(OC)c(OC)cc34)c2)cc1 | < 5.00
7 | COc1cc2ncnc(Oc3ccc(NC(=O)Nc4ccc(F)c(Cl)c4)cc3)c2cc1OC | < 5.00
8 | COc1cc2ncnc(Nc3ccc(NC(=O)Nc4ccc(F)c(Cl)c4)cc3)c2cc1OC | < 5.00
9 | CCOC(=O)Nc1ccc(Nc2ncnc3cc(OCCN(CC)CC)c(OC)cc23)cc1C | < 5.00
10 | COc1cc2ncnc(Oc3ccc(NC(=O)Nc4ccc5ccccc5c4)cc3)c2cc1OC | < 5.00
11 | COc1cc2ncnc(Oc3cccc(NC(=O)Nc4ccccc4)c3)c2cc1OC | < 5.00
12 | COc1cc2ncnc(Oc3ccc(NC(=O)Nc4ccccc4)cc3)c2cc1OC | < 5.00

Further lines, results first:

Row | pIC50 | Compound
13 | < 5.00 | CCCCC(=O)Nc1ccc(Nc2ncnc3cc(OC)c(OC)cc23)cc1C
14 | < 5.00 | CCOC(=O)Nc1ccc(Nc2ncnc3cc(OCCN(CC)CC)c(OC)cc23)cc1Cl
15 | < 5.00 | COc1cc2ncnc(Nc3ccc(NC(=O)Nc4ccccc4)cc3)c2cc1OC
16 | < 5.00 | CCCCOc1cc2c(Nc3ccc(NC(=O)OCC)c(C)c3)ncnc2cc1OCCN(CC)CC
17 | < 5.00 | COc1cc2ncnc(Oc3ccc(F)c(Cl)c3)c2cc1OC
18 | < 5.00 | CCOC(=O)Nc1ccc(Oc2ncnc3cc(OC)c(OC)cc23)cc1
19 | < 5.00 | COc1cc2ncnc(Oc3ccc(NC(=O)NC4CCCCC4)cc3)c2cc1OC
20 | < 5.00 | COc1cc2ncnc(Oc3ccc(NC(=O)Nc4ccc(Br)cc4)cc3)c2cc1OC
21 | < 5.00 | CCOC(=O)Nc1ccc(Nc2ncnc3cc(OC)c(OCCN(CC)CC)cc23)cc1C
22 | < 5.00 | CCOC(=O)Nc1ccc(Nc2ncnc3cc(OC)c(OC)cc23)cc1
